Measurements published in US20250108032A1, “METHODS OF TREATING TYPE 1 DIABETES AND KIDNEY DISEASE” (LEXICON PHARMACEUTICALS, INC., priority 2023, published 2025).

Tested on: patients with type 2 diabetes mellitus and CKD (eGFR 25 to 60 ml per minute per 1.73 m^2)
Format: in vivo
Source text: The cardiorenal protective properties of sotagliflozin in patients with type 2 diabetes informed research that led to the present invention. […] The primary end point was changed during the trial to the composite of the total number of deaths from cardiovascular causes, hospitalizations for heart failure, and urgent visits for heart failure.
Of 19.188 patients screened, 10,584 were enrolled, with 5,292 assigned to the sotagliflozin group and 5,292 assigned to the placebo group and followed for a median of 16 months. The rate of primary end-point events was 5.6 events per 100 patient-years in the sotagliflozin group and 7.5 events per 100 patient-years in the placebo group: hazard ratio, 0.74; 95% confidence interval (CI), 0.63 to 0.88; P<0.001. The rate of deaths from cardiovascular causes per 100 patient-years was 2.2 with sotagliflozin and 2.4 with placebo (hazard ratio, 0.90; 95% CI, 0.73 to 1.12; P=0.35). For the original coprimary end point of the first occurrence of death from cardiovascular causes, nonfatal myocardial infarction, or nonfatal stroke, the hazard ratio was 0.84 (95% CI, 0.72 to 0.99); for the original coprimary end point of the first occurrence of death from cardiovascular causes or hospitalization for heart failure, the hazard ratio was 0.77 (95% CI, 0.66 to 0.91). Diarrhea, genital mycotic infections and volume depletion were more common with sotagliflozin than with placebo.
Table 1 provides the number and type of cardiorenal events observed during the trial, wherein each of the sotagliflozin and placebo groups contained 5292 patients.

[1] = T2D and CKD, 5292 patients per group

## CCOc1ccc(Cc2cc([C@@H]3O[C@H](SC)[C@@H](O)[C@H](O)[C@H]3O)ccc2Cl)cc1 [sotagliflozin, (2S,3R,4R,5S,6R)-2-(4-chloro-3-(4-ethoxybenzyl)phenyl)-6-(methylthio)tetrahydro-2H-pyran-3,4,5-triol]
[1]
  50% decline in eGFR (sustained or last value), n (%): 75 (1.4) n (%)
  Chronic dialysis or transplant, n (%): 15 (0.3) n (%)
  End-stage kidney disease, n (%): 50 (0.9) n (%)
  Renal death, n (%): 8 (0.2) n (%)
  eGFR <15 mL/min/m^2 (sustained or last value), n (%): 41 (0.8) n (%)
Cardiorenal composite, T2D and CKD, 5292 patients per group, median follow-up 16 months
  First event in composite, n (%): 239 (4.5) n (%)
Compared to placebo, FIG. 1
  risk of cardiorenal endpoints: significantly reduced
Composite of deaths from cardiovascular causes, hospitalizations for heart failure, urgent visits for heart failure, median 16 months
  rate of primary end-point events: 5.6 events per 100 patient-years
human, in vivo
  Diarrhea, genital mycotic infections and volume depletion: more common
Median follow-up 16 months
  rate of deaths from cardiovascular causes: 2.2 per 100 patient-years
Vs placebo
  50% decline in eGFR (sustained or last value), HR (95% CI): 0.60 (0.45, 0.81)
  End-stage kidney disease, HR (95% CI): 0.63 (0.45, 0.91)
  Renal death, HR (95% CI): 1.59 (0.52, 4.86)
  eGFR <15 mL/min/m^2 (sustained or last value), HR (95% CI): 0.60 (0.41, 0.88)
Vs placebo, 95% CI 0.63 to 0.88
  primary end point hazard ratio: 0.74
Vs placebo, 95% CI 0.66 to 0.91
  hazard ratio, original coprimary end point: first occurrence of death from cardiovascular causes or hospitalization for heart failure: 0.77
Vs placebo, 95% CI 0.72 to 0.99
  hazard ratio, original coprimary end point: first occurrence of death from cardiovascular causes, nonfatal myocardial infarction, or nonfatal stroke: 0.84
Vs placebo, T2D and CKD
  First event in composite, HR (95% CI): 0.77 (0.65, 0.91)
